PubChem BioAssay (NCI)
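The compound was tested at five concentrations on cells cultured in 96-well plates, with a 48-hour exposure period. TGI marks complete inhibition of growth.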

Legend:
Test in all cases: NCI anticancer screen, dose series, 48 h
[1] = tested on: MDA-MB-231 breast
[2] = tested on: SK-MEL-28 melanoma
[3] = tested on: MOLT-4 leukemia
[4] = tested on: K-562 leukemia
[5] = tested on: UACC-62 melanoma
[6] = tested on: COLO 205 colon
[7] = tested on: BT-549 breast
[8] = tested on: SK-MEL-2 melanoma
[9] = tested on: MDA-N
[10] = tested on: ACHN renal
[11] = tested on: SF-539 CNS
[12] = tested on: PC-3 prostate
[13] = tested on: SNB-19 CNS
[14] = tested on: OVCAR-3 ovarian
[15] = tested on: SF-268 CNS
[16] = tested on: M14 melanoma
[17] = tested on: HT29 colon
[18] = tested on: OVCAR-8 ovarian
[19] = tested on: NCI-H226 lung
[20] = tested on: OVCAR-5 ovarian
[21] = tested on: SK-OV-3 ovarian
[22] = tested on: 786-0 renal
[23] = tested on: HCT-15 colon
[24] = tested on: SNB-75 CNS
[25] = tested on: CCRF-CEM leukemia
[26] = tested on: CAKI-1 renal
[27] = tested on: OVCAR-4 ovarian
[28] = tested on: MALME-3M melanoma
[29] = tested on: NCI-H23 lung
[30] = tested on: UO-31 renal
[31] = tested on: MDA-MB-435
[32] = tested on: HCC-2998 colon
[33] = tested on: U251 CNS
[34] = tested on: SW-620 colon
[35] = tested on: SN12C renal
[36] = tested on: NCI/ADR-RES ovarian
[37] = tested on: SR leukemia
[38] = tested on: NCI-H522 lung
[39] = tested on: SF-295 CNS
[40] = tested on: RXF 393 renal
[41] = tested on: KM12 colon
[42] = tested on: HOP-62 NSCLC
[43] = tested on: NCI-H460 lung
[44] = tested on: TK-10 renal
[45] = tested on: MCF7 breast
[46] = tested on: DU-145 prostate
[47] = tested on: A498 renal
[48] = tested on: LOX IMVI melanoma
[49] = tested on: UACC-257 melanoma
[50] = tested on: SK-MEL-5 melanoma
[51] = tested on: A549 NSCLC
[52] = tested on: IGROV1 ovarian
[53] = tested on: HCT-116 colon
[54] = tested on: EKVX NSCLC
[55] = tested on: RPMI-8226 leukemia
[56] = tested on: HL-60(TB) leukemia
[57] = tested on: HS 578T breast

Measured: TGI

COc1ccc(O[C@H](CO)C[C@@H]2COC(C)(C)O2)cc1
not listed: [56] | [57]
> 100 µM: all other assays above

CC(=O)C1(C(=O)C(=[N+]=[N-])S(=O)(=O)c2ccccc2)CC1
not listed: [21] | [26] | [27] | [47]
> 100 µM: all other assays above
